Measurements as given in ChEMBL document CHEMBL4507290 (2021).

Key:
[1] = system: Tyrosine-protein kinase ABL1 (Homo sapiens), P00519 [F317I]; details: Compound concentration 1000.0 nM
[2] = system: Tyrosine-protein kinase ABL1 (Homo sapiens), P00519 [E255K]; details: Compound concentration 1000.0 nM
[3] = biological target: Histamine H1 receptor (Homo sapiens) (UniProt P35367); details: Compound concentration 10.0 uM
[4] = system: Tyrosine-protein kinase ABL1 (Homo sapiens), P00519 [Q252H]; details: Compound concentration 1000.0 nM
[5] = biological target: D(2) dopamine receptor (Homo sapiens, UniProt P14416); details: Compound concentration 10.0 uM
[6] = system: Tyrosine-protein kinase ABL1 (Homo sapiens), P00519 [F317L]; details: Compound concentration 1000.0 nM
[7] = biological target: 5-hydroxytryptamine receptor 6 (Homo sapiens) (UniProt P50406); details: Compound concentration 10.0 uM
5-hydroxytryptamine receptor 6 (Homo sapiens), sequence (P50406 whole entry): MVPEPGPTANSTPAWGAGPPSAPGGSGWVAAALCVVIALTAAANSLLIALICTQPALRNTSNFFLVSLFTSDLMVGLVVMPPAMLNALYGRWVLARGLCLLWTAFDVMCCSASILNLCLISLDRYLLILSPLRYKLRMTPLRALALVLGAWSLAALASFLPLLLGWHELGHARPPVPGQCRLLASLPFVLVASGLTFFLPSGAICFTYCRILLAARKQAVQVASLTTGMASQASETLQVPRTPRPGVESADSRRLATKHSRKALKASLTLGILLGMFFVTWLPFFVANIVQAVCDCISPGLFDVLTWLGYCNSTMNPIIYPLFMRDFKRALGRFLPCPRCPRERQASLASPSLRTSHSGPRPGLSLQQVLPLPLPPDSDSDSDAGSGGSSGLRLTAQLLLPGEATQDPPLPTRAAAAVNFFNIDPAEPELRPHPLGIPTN

[8] = biological target: Delta-type opioid receptor (Homo sapiens) (UniProt P41143); details: Compound concentration 10.0 uM
Delta-type opioid receptor (Homo sapiens), sequence (P41143 whole entry): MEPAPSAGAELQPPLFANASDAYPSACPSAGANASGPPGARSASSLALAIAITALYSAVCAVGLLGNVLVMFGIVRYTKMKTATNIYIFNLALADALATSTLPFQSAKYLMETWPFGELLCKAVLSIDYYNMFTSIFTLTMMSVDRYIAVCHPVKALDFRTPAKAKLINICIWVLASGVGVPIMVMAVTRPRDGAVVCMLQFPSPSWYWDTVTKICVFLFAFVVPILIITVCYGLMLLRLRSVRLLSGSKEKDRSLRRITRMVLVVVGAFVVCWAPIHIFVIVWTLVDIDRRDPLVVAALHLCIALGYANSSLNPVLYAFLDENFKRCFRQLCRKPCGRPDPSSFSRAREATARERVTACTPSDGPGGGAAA

[9] = system: Tyrosine-protein kinase ABL1 (Homo sapiens), P00519 [Q252H]; details: Compound concentration 1000.0 nM; remark: listed apart in the source
[10] = biological target: 5-hydroxytryptamine receptor 1A (Homo sapiens) (UniProt P08908); details: Compound concentration 10.0 uM
5-hydroxytryptamine receptor 1A (Homo sapiens), sequence (P08908 whole entry): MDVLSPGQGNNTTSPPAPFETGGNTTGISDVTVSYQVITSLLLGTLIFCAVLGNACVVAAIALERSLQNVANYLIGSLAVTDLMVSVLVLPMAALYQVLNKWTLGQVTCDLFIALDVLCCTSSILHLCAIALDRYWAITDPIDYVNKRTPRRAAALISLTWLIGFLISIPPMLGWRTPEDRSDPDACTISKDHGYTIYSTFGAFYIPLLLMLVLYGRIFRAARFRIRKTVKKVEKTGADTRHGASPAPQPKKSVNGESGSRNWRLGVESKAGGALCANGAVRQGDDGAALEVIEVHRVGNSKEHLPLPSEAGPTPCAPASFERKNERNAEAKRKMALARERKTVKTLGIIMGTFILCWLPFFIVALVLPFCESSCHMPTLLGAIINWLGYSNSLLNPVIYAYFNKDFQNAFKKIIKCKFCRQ

[11] = system: Hepatocyte growth factor receptor (Homo sapiens), P08581 [M1250T]; details: Compound concentration 1000.0 nM
[12] = biological target: Alpha-1A adrenergic receptor (Homo sapiens) (UniProt P35348); details: Compound concentration 10.0 uM
Alpha-1A adrenergic receptor (Homo sapiens), sequence (P35348 whole entry): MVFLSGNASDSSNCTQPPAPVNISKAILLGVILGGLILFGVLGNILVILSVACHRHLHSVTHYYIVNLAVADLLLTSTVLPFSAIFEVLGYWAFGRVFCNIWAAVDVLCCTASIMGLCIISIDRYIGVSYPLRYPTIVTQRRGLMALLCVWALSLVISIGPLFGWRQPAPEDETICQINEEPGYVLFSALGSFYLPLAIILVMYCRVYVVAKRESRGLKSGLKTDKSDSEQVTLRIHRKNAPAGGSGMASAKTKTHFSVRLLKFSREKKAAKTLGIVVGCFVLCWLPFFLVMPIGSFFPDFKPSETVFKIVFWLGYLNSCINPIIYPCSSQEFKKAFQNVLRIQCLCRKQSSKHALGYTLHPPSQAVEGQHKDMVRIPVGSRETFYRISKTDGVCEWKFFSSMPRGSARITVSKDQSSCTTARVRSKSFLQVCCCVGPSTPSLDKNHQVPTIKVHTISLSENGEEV

[13] = biological target: Alpha-2C adrenergic receptor (Homo sapiens) (UniProt P18825); details: Compound concentration 10.0 uM
[14] = biological target: T1, Sodium-dependent dopamine transporter (Homo sapiens, UniProt Q01959); assay: Functional Assay: Platelet-rich plasma SLC6A3/cAMP; format: cell-free
T1 sequence (Q01959 whole entry): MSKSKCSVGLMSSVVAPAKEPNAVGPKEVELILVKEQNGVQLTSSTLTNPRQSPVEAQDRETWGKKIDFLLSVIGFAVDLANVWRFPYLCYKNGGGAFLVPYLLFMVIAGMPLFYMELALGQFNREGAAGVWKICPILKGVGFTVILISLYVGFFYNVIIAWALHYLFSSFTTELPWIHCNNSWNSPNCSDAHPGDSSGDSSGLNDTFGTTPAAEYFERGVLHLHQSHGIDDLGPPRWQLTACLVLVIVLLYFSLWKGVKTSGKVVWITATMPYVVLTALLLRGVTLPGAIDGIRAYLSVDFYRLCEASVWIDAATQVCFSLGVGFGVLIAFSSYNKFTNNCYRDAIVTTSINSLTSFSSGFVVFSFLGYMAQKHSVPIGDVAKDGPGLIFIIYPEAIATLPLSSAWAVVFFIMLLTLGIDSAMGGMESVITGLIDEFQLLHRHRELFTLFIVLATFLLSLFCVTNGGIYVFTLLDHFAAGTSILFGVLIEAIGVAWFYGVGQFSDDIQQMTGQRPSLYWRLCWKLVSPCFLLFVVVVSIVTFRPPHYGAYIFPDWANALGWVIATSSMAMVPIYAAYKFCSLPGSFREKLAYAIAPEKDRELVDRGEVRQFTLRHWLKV

[15] = biological target: Alpha-1B adrenergic receptor (Homo sapiens) (UniProt P35368); details: Compound concentration 10.0 uM
Alpha-1B adrenergic receptor (Homo sapiens), sequence (P35368 whole entry): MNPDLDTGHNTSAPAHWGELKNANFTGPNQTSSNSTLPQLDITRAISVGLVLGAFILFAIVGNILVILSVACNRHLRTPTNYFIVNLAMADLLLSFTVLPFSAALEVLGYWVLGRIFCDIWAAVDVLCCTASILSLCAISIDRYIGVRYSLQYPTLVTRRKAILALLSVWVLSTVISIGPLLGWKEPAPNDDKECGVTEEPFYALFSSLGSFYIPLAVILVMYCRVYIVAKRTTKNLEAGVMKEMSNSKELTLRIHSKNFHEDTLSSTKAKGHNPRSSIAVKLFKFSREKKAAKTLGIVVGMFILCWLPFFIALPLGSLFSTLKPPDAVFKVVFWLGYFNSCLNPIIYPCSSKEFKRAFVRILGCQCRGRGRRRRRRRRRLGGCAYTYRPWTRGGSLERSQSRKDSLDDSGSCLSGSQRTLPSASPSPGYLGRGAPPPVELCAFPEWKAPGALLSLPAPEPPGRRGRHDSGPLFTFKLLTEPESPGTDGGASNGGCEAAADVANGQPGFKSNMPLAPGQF

[16] = GPCRScan assay: inhibition of GABA/PBR; set-up: species or system Rattus norvegicus; radioligand conc. used [nm] 0.3 – 2.0, parental cells brain tissue
[17] = biological target: Alpha-2A adrenergic receptor (Homo sapiens) (UniProt P08913); details: Compound concentration 10.0 uM
Alpha-2A adrenergic receptor (Homo sapiens), sequence (P08913 whole entry): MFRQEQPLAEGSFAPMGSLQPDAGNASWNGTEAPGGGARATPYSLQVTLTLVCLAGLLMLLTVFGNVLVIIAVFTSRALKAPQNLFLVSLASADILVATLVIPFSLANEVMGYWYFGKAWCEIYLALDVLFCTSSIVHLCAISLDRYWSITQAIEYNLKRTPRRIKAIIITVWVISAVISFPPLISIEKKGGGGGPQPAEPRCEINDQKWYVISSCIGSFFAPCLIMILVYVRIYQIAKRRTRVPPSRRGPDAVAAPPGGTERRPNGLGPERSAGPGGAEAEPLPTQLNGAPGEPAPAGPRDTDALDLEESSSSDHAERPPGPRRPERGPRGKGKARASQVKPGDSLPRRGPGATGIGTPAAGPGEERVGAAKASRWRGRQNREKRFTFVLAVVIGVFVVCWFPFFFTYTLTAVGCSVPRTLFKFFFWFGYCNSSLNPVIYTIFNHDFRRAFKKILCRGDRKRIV

[18] = biological target: Alpha-1D adrenergic receptor (Homo sapiens, UniProt P25100); assay: GPCRScan assay: inhibition of Alpha1D; set-up: radioligand conc. used [nm] 0.3 – 1.0, parental cells stable
[19] = biological target: Alpha-1D adrenergic receptor (Homo sapiens) (UniProt P25100); details: Compound concentration 10.0 uM
[20] = biological target: MAP kinase-activated protein kinase 5 (Homo sapiens) (UniProt Q8IW41); details: Compound concentration 1000.0 nM
MAP kinase-activated protein kinase 5 (Homo sapiens), sequence (Q8IW41 whole entry): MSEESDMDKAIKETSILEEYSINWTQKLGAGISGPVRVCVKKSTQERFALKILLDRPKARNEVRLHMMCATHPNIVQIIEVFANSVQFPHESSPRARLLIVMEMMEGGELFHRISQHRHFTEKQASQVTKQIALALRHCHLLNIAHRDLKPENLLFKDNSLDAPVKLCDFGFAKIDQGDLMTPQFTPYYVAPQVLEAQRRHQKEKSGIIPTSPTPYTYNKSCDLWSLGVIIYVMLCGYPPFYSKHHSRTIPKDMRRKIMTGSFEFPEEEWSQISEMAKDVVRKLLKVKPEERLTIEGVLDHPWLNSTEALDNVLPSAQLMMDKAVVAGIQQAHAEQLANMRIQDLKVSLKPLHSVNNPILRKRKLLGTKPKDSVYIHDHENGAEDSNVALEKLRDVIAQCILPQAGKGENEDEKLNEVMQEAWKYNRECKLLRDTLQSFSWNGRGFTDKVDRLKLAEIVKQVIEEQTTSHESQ

[21] = biological target: cAMP-dependent protein kinase catalytic subunit alpha (Homo sapiens) (UniProt P17612); details: Compound concentration 1000.0 nM
[22] = biological target: cAMP-dependent protein kinase catalytic subunit beta (Homo sapiens) (UniProt P22694); details: Compound concentration 1000.0 nM
[23] = biological target: T1, Sodium-dependent dopamine transporter; assay: GPCRScan assay: inhibition of DAT; set-up: radioligand conc. used [nm] 3.6 – 16.0, parental cells stable HEK
[24] = biological target: Inhibitor of nuclear factor kappa-B kinase subunit beta (Homo sapiens) (UniProt O14920); details: Compound concentration 1000.0 nM
Inhibitor of nuclear factor kappa-B kinase subunit beta (Homo sapiens), sequence (O14920 whole entry): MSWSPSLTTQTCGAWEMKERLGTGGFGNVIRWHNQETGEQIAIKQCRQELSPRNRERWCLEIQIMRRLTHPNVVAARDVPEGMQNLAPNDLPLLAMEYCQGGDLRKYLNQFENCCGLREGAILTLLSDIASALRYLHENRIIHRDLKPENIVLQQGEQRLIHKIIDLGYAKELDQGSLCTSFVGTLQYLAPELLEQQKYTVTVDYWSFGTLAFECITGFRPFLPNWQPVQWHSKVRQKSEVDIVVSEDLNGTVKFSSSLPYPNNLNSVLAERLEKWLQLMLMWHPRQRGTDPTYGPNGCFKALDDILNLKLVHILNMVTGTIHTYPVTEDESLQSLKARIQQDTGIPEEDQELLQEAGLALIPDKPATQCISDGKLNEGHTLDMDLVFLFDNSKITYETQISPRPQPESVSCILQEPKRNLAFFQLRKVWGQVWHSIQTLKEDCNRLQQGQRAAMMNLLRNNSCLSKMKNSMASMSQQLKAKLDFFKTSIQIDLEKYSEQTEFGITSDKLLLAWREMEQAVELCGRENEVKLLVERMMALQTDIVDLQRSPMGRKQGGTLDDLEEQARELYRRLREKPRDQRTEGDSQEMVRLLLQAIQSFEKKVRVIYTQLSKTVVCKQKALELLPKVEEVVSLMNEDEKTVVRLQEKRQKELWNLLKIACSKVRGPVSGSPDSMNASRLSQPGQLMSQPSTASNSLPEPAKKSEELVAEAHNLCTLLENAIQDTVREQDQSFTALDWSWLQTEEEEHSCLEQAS

[25] = biological target: Histamine H3 receptor (Homo sapiens) (UniProt Q9Y5N1); details: Compound concentration 10.0 uM
Histamine H3 receptor (Homo sapiens), sequence (Q9Y5N1 whole entry): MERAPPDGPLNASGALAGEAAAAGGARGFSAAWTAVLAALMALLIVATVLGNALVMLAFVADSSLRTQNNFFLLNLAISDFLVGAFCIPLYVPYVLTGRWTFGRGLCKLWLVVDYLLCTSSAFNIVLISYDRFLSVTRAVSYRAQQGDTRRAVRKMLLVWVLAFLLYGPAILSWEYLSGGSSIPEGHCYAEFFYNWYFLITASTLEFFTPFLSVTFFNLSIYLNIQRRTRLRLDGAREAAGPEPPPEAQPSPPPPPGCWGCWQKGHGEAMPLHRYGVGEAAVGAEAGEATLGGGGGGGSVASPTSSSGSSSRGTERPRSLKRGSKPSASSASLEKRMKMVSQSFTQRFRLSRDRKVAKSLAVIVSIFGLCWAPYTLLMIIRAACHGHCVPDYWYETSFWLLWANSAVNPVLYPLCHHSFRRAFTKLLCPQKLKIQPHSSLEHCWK

CN([C@@H]1CCc2c(CC(=O)O)c3cc(S(C)(=O)=O)ccc3n2C1)S(=O)(=O)c1ccc(F)cc1
residual activity [1]: 76%
residual activity [2]: 100%
inhibition [3]: -9.04%
residual activity [4]: 98%
inhibition [5]: -3.84%
residual activity [6]: 92%
inhibition [7]: -5.39%
inhibition [8]: 20%
residual activity [9]: 79%

CN([C@@H]1CCc2c(CC(=O)O)c3ccccc3n2C1)S(=O)(=O)c1ccc(F)cc1 [MK-7246]
inhibition [10]: 15.5%
residual activity [11]: 100%
inhibition [12]: -4.89%
inhibition [13]: -3.1%
IC50 [14]: 8690 nM (not active)
inhibition [15]: -8.18%
Ki [16]: 1120 nM
pKi [16]: 5.95
inhibition [17]: -3.89%
Ki [18]: 10000 nM
inhibition [19]: 50%
residual activity [20]: 94%
residual activity [21]: 100%
residual activity [22]: 100%
Ki ([23]; read-out: Ki): 283 nM
Ki ([23]; read-out: pKi (converted)): 316 nM
residual activity [24]: 98%
inhibition [25]: 4.03%
